Structures are written as SMILES.

The target of the assay is T1, N-type calcium channel (Mus musculus, UniProt O55017).
T1 construct: gene Cacna1b
The format is cell-based.

T1 sequence (O55017 whole entry): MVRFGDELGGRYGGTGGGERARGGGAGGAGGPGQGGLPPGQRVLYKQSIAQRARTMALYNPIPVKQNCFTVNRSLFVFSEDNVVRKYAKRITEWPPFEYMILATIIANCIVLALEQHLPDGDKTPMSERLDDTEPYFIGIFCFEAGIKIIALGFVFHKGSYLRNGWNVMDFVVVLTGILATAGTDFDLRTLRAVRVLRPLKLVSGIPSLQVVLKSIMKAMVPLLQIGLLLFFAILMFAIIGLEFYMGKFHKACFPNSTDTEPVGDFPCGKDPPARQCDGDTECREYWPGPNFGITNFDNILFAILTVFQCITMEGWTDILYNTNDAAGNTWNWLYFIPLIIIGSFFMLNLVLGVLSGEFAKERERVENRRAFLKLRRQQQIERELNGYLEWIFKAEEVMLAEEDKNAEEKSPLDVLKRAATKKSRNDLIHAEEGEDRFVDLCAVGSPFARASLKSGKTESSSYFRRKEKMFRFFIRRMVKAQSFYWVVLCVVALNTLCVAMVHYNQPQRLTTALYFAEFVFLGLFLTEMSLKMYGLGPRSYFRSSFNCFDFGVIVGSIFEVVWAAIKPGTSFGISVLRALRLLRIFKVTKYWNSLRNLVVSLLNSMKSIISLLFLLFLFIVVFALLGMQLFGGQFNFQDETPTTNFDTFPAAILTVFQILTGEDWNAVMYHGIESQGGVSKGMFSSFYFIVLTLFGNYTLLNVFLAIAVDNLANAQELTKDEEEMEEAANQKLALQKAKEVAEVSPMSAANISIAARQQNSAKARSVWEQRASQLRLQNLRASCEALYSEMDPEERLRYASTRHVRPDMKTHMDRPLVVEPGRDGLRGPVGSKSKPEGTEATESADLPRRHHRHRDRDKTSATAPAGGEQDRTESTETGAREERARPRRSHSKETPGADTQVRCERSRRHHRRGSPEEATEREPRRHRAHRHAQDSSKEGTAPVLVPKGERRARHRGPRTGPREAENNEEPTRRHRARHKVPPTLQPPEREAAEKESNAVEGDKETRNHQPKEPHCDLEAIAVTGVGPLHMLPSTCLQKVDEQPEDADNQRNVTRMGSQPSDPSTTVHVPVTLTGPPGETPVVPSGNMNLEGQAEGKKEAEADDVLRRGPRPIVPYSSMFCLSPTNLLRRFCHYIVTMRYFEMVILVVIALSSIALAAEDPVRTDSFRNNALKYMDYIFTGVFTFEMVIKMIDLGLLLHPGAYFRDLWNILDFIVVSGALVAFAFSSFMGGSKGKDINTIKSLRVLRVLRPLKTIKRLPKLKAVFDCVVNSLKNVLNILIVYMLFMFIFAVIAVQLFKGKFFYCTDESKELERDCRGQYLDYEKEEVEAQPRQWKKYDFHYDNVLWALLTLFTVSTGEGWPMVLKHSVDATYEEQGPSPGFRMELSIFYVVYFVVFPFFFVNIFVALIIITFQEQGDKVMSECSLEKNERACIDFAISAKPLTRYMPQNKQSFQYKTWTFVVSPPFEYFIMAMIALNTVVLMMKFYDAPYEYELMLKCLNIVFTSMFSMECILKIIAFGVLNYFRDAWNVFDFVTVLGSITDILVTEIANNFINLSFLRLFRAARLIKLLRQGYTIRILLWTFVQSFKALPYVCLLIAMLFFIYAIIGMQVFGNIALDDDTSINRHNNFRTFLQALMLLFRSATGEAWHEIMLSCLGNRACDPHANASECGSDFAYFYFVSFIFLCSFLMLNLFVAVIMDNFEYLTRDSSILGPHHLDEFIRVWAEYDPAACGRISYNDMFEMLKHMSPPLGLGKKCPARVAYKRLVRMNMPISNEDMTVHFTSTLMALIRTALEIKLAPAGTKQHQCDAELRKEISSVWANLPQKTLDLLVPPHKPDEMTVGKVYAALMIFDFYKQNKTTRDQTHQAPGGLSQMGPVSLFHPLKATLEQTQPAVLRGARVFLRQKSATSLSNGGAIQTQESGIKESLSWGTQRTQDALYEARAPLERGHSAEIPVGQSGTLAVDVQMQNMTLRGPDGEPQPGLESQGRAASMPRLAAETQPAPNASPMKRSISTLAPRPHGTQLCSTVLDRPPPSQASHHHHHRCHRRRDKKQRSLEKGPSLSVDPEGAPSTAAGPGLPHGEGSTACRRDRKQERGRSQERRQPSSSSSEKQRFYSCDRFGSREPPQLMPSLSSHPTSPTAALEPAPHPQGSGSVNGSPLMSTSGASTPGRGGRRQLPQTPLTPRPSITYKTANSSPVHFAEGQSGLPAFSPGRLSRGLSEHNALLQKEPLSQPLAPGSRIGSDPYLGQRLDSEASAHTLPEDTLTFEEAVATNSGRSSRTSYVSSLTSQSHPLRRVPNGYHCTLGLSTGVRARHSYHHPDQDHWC

As to `O=C1CCC[C@@H]2[C@H]3CCCN4CCC[C@@H](CN12)[C@@H]34` [MT, Matrine], the “whole-cell patch clamp of HVA Ca2+ currents in native mouse DRG neurons, occlusi” value was “the inhibitory effect of MT on HVA Ica current is mainly by inhibiting the N-type calcium channel”.

The values above are taken from paper PMC6063846, “Matrine inhibits itching by lowering the activity of calcium channel” (Scientific Reports, 2018).
